Patent US20220031800A1, “PEPTIDES FOR TREATING NON-EXUDATIVE MACULAR DEGENERATION AND OTHER DISORDERS OF THE EYE” (Allegro Pharmaceuticals, LLC, priority 2019, published 2022)

Columns and labels:
[1] = Trypan blue viability of human RPE cells (ARPE-19) exposed to hydrogen peroxide; type: cell-based; details: human, ARPE-19 cells (human RPE cells); 100 μM H2O2 alone, 8 hours; read-out: Reduction of cell viability
Protocol: Purpose: Investigate cytoprotective properties of risuteganib in human RPE cells (ARPE-19) exposed to hydrogen peroxide, which is a reactive oxygen species that can induce cell death at elevated levels. Methods: ARPE-19 cells were cultured in laminin-coated trans-wells for 2 weeks to induce differentiation. Cells were then exposed to the experimental conditions: […]

primary human RPE cells [2] = experiment: Mitochondrial membrane potential (JC-1) in primary human RPE cells exposed to hydroquinone; type: cell-based; details: HQ 125-180 uM, 3-4 hours
Protocol: (§1) Purpose: To determine if risuteganib protects against hydroquinone (HQ)-mediated cell injury, elevated ROS level and reduced mitochondrial membrane potential (Δψm) in cultured human RPE cells. Elevated ROS levels increase oxidative stress in the cells, leading to reduced cell health and cell death. Loss of ΔΨm is a marker for early cell death. Methods: Primary human RPE cells were seeded on collagen-coated 96-well plates in triplicates at 8K, 10K and […] cells/well, respectively. Cells reached 80% to 100% confluence 24 hours after plating, and confluent cells were then grown for an additional 4 or 5 days until growth was density arrested. On day 6 after plating, cells in the plate upper half were loaded with 20 μM CM-H2DCFDA (measures ROS level) and in the plate lower half with 10 μM JC-1 (measures Δψm) for 30 minutes at 37° C. […] For the ROS and Δψm assays, a fluorescence plate reader was used to quantify ROS production (490-nm excitation, 522-nm emission), and green monomer of JC-1 (490-nm excitation, 522-nm emission) and red JC-1 aggregate (535-nm excitation, 590-nm emission), respectively. […] The WST reagent was quantified with a plate reader at 440 nm and a reference wavelength at 690 nm. Data were normalized to untreated control as 100% and were expressed as the mean±SD.

primary human RPE cells [3] = experiment: ROS level (CM-H2DCFDA) in primary human RPE cells exposed to hydroquinone; type: cell-based; details: HQ 125-180 uM, 3-4 hours
Protocol: as §1

primary human RPE cells [4] = experiment: WST-1 cell viability of primary human RPE cells exposed to hydroquinone; type: cell-based; details: HQ 125-180 uM, 4 hours or 5 hours
Protocol: as §1

[5] = Trypan blue viability of primary mouse retinal neuron cells exposed to kainic acid; type: cell-based, CD1 mice; details: CD1, mouse; 500 μM kainic acid alone, 8 hours; read-out: Reduction of cell viability
Protocol: (§2) Purpose: Investigate neuroprotective properties of risuteganib in primary mouse retinal neuron cells exposed to kainic acid, a neuroexcitatory compound that activates glutamate receptors, resulting in overstimulation and cell death.
Methods: Fresh retina were collected from CD1 mice and then mechanically dissociated with sterile Pasteur pipette. Cell suspensions were then dispensed into petri dish and incubated for 6 hours. Cells were then exposed to the experimental conditions: (1) untreated control, (2) 1.0 mg/mL risuteganib, (3) 500 μM kainic acid (KA), and (4) 1.0 mg/mL risuteganib for 24 hours before 500 μM kainic acid exposure. 8 hours after kainic acid treatment, dead and live cell numbers were measured using Trypan blue exclusion assay on a hemocytometer.

[6] = Trypan blue viability of primary mouse Müller cells exposed to kainic acid; type: cell-based, CD1 mice; details: CD1, mouse; 500 μM kainic acid alone, 48 hours; read-out: Reduction of Muller cell viability
Description: as §2, with “Müller” for “retinal neuron”, “death. Retinal Müller cells support normal functions of neurons and their dysregulation can leads to loss of homeostasis and neuronal cell death.” for “death.”
Methods: Fresh retina were collected from CD1 mice and then mechanically dissociated with sterile Pasteur pipette into small aggregates and seeded into 35 mm culture dishes. All cultures were first left unchanged for 5-6 days and then replenished every 3-4 days. When the cell growth had reached around 80% confluency, retinal aggregates and debris were removed by media washes to form a purified cell monolayer. Cells were then exposed to the experimental conditions: (1) untreated control, (2) 1.0 mg/mL risuteganib, (3) 500 μM kainic acid (KA), and (4) 1.0 mg/mL risuteganib for 24 hours before 500 μM kainic acid exposure. 48 hours after kainic acid treatment, dead and live cell numbers were measured using Trypan blue exclusion assay on a hemocytometer.

[7] = test system: neovascularization in mice (CNV); details: reproduced from US 2019/0062371; cited from earlier work
[8] = test system: human retinal Müller cells (MIO-M1); experiment: Reactive oxygen species level in human Müller cells (MIO-M1); type: cell-based; details: 1× concentration (clinical dose), 24 hours
Protocol: Purpose: To determine the effects of risuteganib and anti-VEGF drugs on reactive oxygen species (ROS) levels in cultured human retinal Müller cells (MIO-M1). Elevated ROS levels can disrupt normal cellular functions, leading to reduced cell health and possible cell death.
Methods: The immortalized human retinal Müller cell line (MIO-M1) was obtained from the Department of Cell Biology of the University College, London. Cells were cultured in Dulbecco's Modified Eagle's Medium (DMEM) and plated in 24-well plates for 24 hours before treatment with 1× concentration of 1 mg/50 μL ALG-1001, ranibizumab, bevacizumab, or aflibercept. Dosage was based on clinical dose of each compound. The experiments were repeated 3 times with 6 replicates each. After 24 hours drug treatment, ROS level was measured using the fluorescent dye 2′,7′-dichlorodihydrofluorescein diacetate. The signals were read using the Biotek Synergy HT plate reader with EX filter in 482 nm and EM filter in 520 nm. Results were normalized to untreated control as 100%. Statistical analysis was performed in GraphPad Prism software program.

[9] = test system: human retinal Müller cells (MIO-M1); experiment: Mitochondrial membrane potential (JC-1) in human Müller cells (MIO-M1); type: cell-based; details: 1× concentration (clinical dose), 24 hours, vs untreated control
Protocol: Purpose: To determine the effects of risuteganib on the mitochondrial membrane potential (ΔΨm) in cultured human retinal Müller cells (MIO-M1). Loss of ΔΨm is a marker for early cell death.
Methods: The immortalized human retinal Müller cell line (MIO-M1) was obtained from the Department of Cell Biology of the University College, London. Cells were cultured in Dulbecco's Modified Eagle's Medium (DMEM) and plated in 24-well plates for 24 hours before treatment with 1× concentration of 1 mg/50 μL risuteganib, ranibizumab, bevacizumab, or aflibercept. Dosage was based on clinical dose of each compound. The experiments were repeated 3 times with 6 replicates each. After 24 hours drug treatment, the ΔΨm was measured using the JC-1 kit, a cationic dye that fluoresces red within the mitochondria of healthy, live cells. In the stressed or apoptotic cells, the mitochondrial membrane potential collapses and the cationic dye fluoresces green. First, cells were rinsed with fresh media and then incubated with the JC-1 reagent for 15 minutes at 37 degrees C. The dyes were then removed, and phosphate buffered saline was added to each well. The Red fluorescence (live cells) was read at EX 550 nm and EM 600 nm. The Green fluorescence (apoptotic cells) was read at EX 483 nm and EM 535 nm. The changes in ΔΨm were calculated by the ratio of red to green fluorescence. […]

[10] = test system: human retinal Müller cells (MIO-M1); experiment: MTT cell viability of human Müller cells (MIO-M1); type: cell-based; details: 1× concentration (clinical dose), 24 hours, vs untreated (FIG. 18)
Protocol: Purpose: To determine the effects of risuteganib and anti-VEGF drugs on the cell viability of cultured human retinal Müller cells (MIO-M1).
Methods: The immortalized human retinal Müller cell line (MIO-M1) was obtained from the Department of Cell Biology of the University College, London. Cells were cultured in Dulbecco's Modified Eagle's Medium (DMEM) and plated in 96-well plates for 24 hours before treatment with 0.5×, 1× or 2× concentrations of 1 mg/50 μL risuteganib, or 1× of ranibizumab, bevacizumab or aflibercept. Dosage was based on clinical dose of each compound. The experiments were repeated 3 times with 7-8 replicates each. After 24 hours of drug treatment, MTT NAD(P)H-dependent colorimetric assay was used to assess the number of viable cells present in the cultures. Absorbance ratios were normalized to untreated control as 100%. Statistical analysis was performed in GraphPad Prism software program.

With OO [H2O2, hydrogen peroxide, reference compound] the cytotoxicity at 8 h, 100 μM [1] was 22%.

In the case of Oc1ccc(O)cc1 [HQ, hydroquinone, reference compound], the “Change in Δψm compared to untreated cells” value (primary human RPE cells [2]) is reported as −53%, the “Increase in ROS levels compared to untreated cells” value (primary human RPE cells [3]) is reported as 78% and the “Change in cell viability compared to untreated cells” value (primary human RPE cells [4]) is reported as −82%.

C=C(C)[C@H]1CN[C@H](C(=O)O)[C@H]1CC(=O)O [kainic acid, reference compound] showed a cytotoxicity at 8 h, 500 μM [5] of 42% and a cytotoxicity at 48 h, 500 μM [6] of 32%.

In the case of R - G - Cys(acid)•TFA [Test Compound 1], the “Activity At Dose Tested” value [7] is given as “Active” and the “Mean % Reduction of Retinal Neovascularization In ROP Model” value [7] is given as 49 - FIG. 11%.

For “R- G - Cys(acid)•Acetate [Test Compound 2]”, the “Activity At Dose Tested” value [7] is given as “Active” and the “Mean % Reduction of Retinal Neovascularization In ROP Model” value [7] is given as 56 - FIG. 11%.

With aflibercept [reference compound] the “Change in ROS level compared to untreated control” value (“Change in ROS level” for short) [8] was 29%, the “Mitochondrial membrane potential (ΔΨm), in words” value [9] was “decreased ΔΨm” and the “Cell viability (MTT), in words” value [10] was “decreased cell viability”.

In the case of bevacizumab [reference compound], the “Change in ROS level” value [8] is reported as 24% and the “Cell viability (MTT), in words” value [10] is reported as “decreased cell viability”.

B1: ranibizumab (antibody, chains of the INN, looked up, V domains shown)
VH: EVQLVESGGGLVQPGGSLRLSCAASGYDFTHYGMNWVRQAPGKGLEWVGWINTYTGEPTYAADFKRRFTFSLDTSKSTAYLQMNSLRAEDTAVYYCAKYPYYYGTSHWYFDVWGQGTLVTVSS
VL: DIQLTQSPSSLSASVGDRVTITCSASQDISNYLNWYQQKPGKAPKVLIYFTSSLHSGVPSRFSGSGSGTDFTLTISSLQPEDFATYYCQQYSTVPWTFGQGTKVEIK
notes: anti-VEGF agent
With B1 the “Change in ROS level” value [8] was 37% and the “Cell viability (MTT), in words” value [10] was “decreased cell viability”.
